The source of these data is ChEMBL document CHEMBL5244235, “Diarylpentanoids with antitumor activity: A critical review of structure-activity relationship studies” (Eur J Med Chem, 2020).

Molecules are shown by their SMILES. pIC50: −log10 of the molar value.

The test system of data set [1] is A549. The experiment in a line: Antiproliferative activity against human A549 cells assessed as cell viability by WST-1 assay. It counts as functional, cell-based. (Tetrazolium dyes change colour on reduction, which living cells bring about.)
In data set [2] the test system is MV4-11. The experiment in a line: Antiproliferative activity against human MV4-11 cells assessed as cell viability by WST-1 assay. The class given is functional, cell-based.
Data set [3] relates to MG-63. In words: Antiproliferative activity against human MG-63 cells assessed as cell viability by WST-1 assay. It counts as functional, cell-based.
In data set [4] the test system is NCI-H23. In words: Antiproliferative activity against human NCI-H23 cells assessed as cell viability by WST-1 assay. The class given is functional, cell-based.
Data set [5] relates to MDA-MB-231. The experiment in a line: Antiproliferative activity against human MDA-MB-231 cells assessed as cell viability by WST-1 assay. It counts as functional, cell-based.
Data set [6] has as its system MDA-MB-468. The experiment in a line: Antiproliferative activity against human MDA-MB-468 cells assessed as cell viability by WST-1 assay. It counts as functional, cell-based.
In data set [7] the test system is GCIY. In words: Antiproliferative activity against human GCIY cells assessed as cell growth inhibition measured after 72 hrs. The class given is functional, cell-based.
Data set [8] can be described thus: Antiproliferative activity against human SH-10-TC cells assessed as cell growth inhibition measured after 72 hrs. The class given is functional, cell-based.
The subject of data set [9] is HCT-116. In words: Antiproliferative activity against human HCT-116 cells assessed as cell growth inhibition measured after 72 hrs. It counts as functional, cell-based. The note with it: HCT-116, 72 h.
For data set [10], the system named is DLD-1. In words: Antiproliferative activity against human DLD-1 cells assessed as cell growth inhibition measured after 72 hrs. The class given is functional, cell-based. The note with it: DLD-1, 72 h.
In data set [11] the test system is A549. In words: Antiproliferative activity against human A549 cells assessed as cell growth inhibition measured after 72 hrs. It counts as functional, cell-based. As to conditions: A549, 72 h.
Data set [12] has as its system ACHN. The experiment in a line: Antiproliferative activity against human ACHN cells assessed as cell growth inhibition measured after 72 hrs. The class given is functional, cell-based.
Data set [13] deals with Huh-7. In words: Antiproliferative activity against human Huh-7 cells assessed as cell growth inhibition measured after 72 hrs. The class given is functional, cell-based. The note with it: Huh-7, 72 h.
Data set [14] can be described thus: Antiproliferative activity against human OVK18 cells assessed as cell growth inhibition measured after 72 hrs. The class given is functional, cell-based. The note with it: OVK18, 72 h.
The test system of data set [15] is MCF7. The experiment in a line: Antiproliferative activity against human MCF7 cells assessed as cell growth inhibition measured after 72 hrs. It counts as functional, cell-based. As to conditions: MCF7, 72 h.
In data set [16] the test system is A-431. In words: Antiproliferative activity against human A-431 cells assessed as cell growth inhibition measured after 72 hrs. As to conditions: A-431, 72 h. It counts as functional, cell-based.
Data set [17] concerns HuCCT-1. The experiment in a line: Antiproliferative activity against human HuCCT-1 cells assessed as cell growth inhibition measured after 72 hrs. The class given is functional, cell-based. The note with it: HuCCT-1, 72 h.
The subject of data set [18] is 8505C. The experiment in a line: Antiproliferative activity against human 8505C cells assessed as cell growth inhibition measured after 72 hrs. The class given is functional, cell-based.
For data set [19], the system named is G-361. In words: Antiproliferative activity against human G-361 cells assessed as cell growth inhibition measured after 72 hrs. The class given is functional, cell-based. The note with it: G-361, 72 h.
In data set [20] the test system is PC-3. The experiment in a line: Antiproliferative activity against human PC-3 cells assessed as cell growth inhibition measured after 72 hrs. The note with it: PC-3, 72 h. It counts as functional, cell-based.
Data set [21] can be described thus: Antiproliferative activity against human PK-1 cells assessed as cell growth inhibition measured after 72 hrs. It counts as functional, cell-based. The note with it: PK-1, 72 h.
The test system of data set [22] is MDA-MB-231. The experiment in a line: Growth inhibition of human MDA-MB-231 cells measured after 72 hrs by microplate reader analysis. It counts as functional.
The test system of data set [23] is RPMI-7951. In words: Growth inhibition of human RPMI-7951 cells measured after 72 hrs by microplate reader analysis. The note with it: RPMI-7951, time 72 hrs. The class given is functional, cell-based.
A short description of data set [24]: Cytotoxicity against HUVEC cells assessed as cell growth inhibition by anti-angiogenisis screening assay. It counts as toxicity, cell-based. As to conditions: human.
Data set [25] can be described thus: Cytotoxicity against mouse MS-1 cells assessed as cell growth inhibition by anti-angiogenisis screening assay. The class given is toxicity, cell-based.
A short description of data set [26]: Cytotoxicity against mouse SVR cells assessed as cell growth inhibition by anti-angiogenisis screening assay. The class given is toxicity, cell-based.
Data set [27] deals with HeLa. In words: Antiproliferative activity against human HeLa cells assessed as cell growth inhibition measured after 24 hrs by MTT assay. The class given is functional, cell-based.
Data set [28] relates to THP-1. In words: Antiproliferative activity against human THP-1 cells assessed as cell growth inhibition measured after 24 hrs by MTT assay. It counts as functional, cell-based. The note with it: THP-1, 24 h.
Data set [29] deals with HepG2. The experiment in a line: Antiproliferative activity against human HepG2 cells assessed as cell growth inhibition measured after 24 hrs by MTT assay. The class given is functional, cell-based. As to conditions: HepG2, 24 h.
Data set [30] relates to K562. In words: Antiproliferative activity against human K562 cells assessed as cell growth inhibition measured after 24 hrs by MTT assay. It counts as functional, cell-based. The note with it: K562, 24 h.

`COc1cc(/C=C2\CN(C(=O)C(C)C)C/C(=C\c3cc(OC)c(OC)c(OC)c3)C2=O)cc(OC)c1OC`: the pIC50 in data set [1], in [2], in [3], in [4], in data set [5] and in [6] was 6.41 each time.
Take `COc1cc(CCC(O)CCc2cc(OC)c(OC)c(OC)c2)cc(OC)c1OC`: the pIC50 in data set [7], in data set [8], in data set [9], in data set [10], in data set [11] and in [12] was under 4.30 in each case. Moreover, the negative-log IC50 (pIC50) in [13], in [14], in [15], in [16], in data set [17] and in data set [18] was under 4.30 each time. For the same molecule, the negative-log IC50 (pIC50) in data set [19], in data set [20] and in data set [21] was under 4.30 in each case.
On to `O=C(/C=C/c1ccc(O)cc1)/C=C/c1ccc(O)cc1`, for which the GI50 in [22] stood at 1 µM; in [23], 2.3 µM; in data set [24], 3.2 µM; in [25], 3.2 µM; in data set [26] it was 3.2 µM.
Turning to `O=C1/C(=C/c2ccc(Cl)cc2Cl)CNC/C1=C\c1ccc(Cl)cc1Cl`, the negative-log IC50 (pIC50) in data set [1], in data set [2], in [3], in [4], in [5] and in [6] was 6.41 throughout.
As to `COc1ccc(/C=C2\CC(C)C/C(=C\c3ccc(OC)c(OC)c3)C2=O)cc1OC` (centres undefined), the pIC50 in data set [7], in data set [8], in data set [9], in data set [10], in [11] and in [12] was under 4.30 each time. Moreover, the pIC50 in data set [13], in data set [14], in data set [15], in data set [16], in data set [17] and in data set [18] was under 4.30 throughout. For the same molecule, the pIC50 in data set [19], in data set [20] and in [21] was under 4.30 each time.
`O=C1/C(=C/c2cccc(/N=C/c3ccc(O)c(O)c3O)c2)CCC/C1=C\c1cccc(/N=C/c2ccc(O)c(O)c2O)c1`: the negative-log IC50 (pIC50) in [27], in [28], in [29] and in data set [30] was over 5.30 throughout.
Take `O=C(/C=C/c1cccc(O)c1)/C=C/c1cccc(O)c1`: the 50% growth inhibitory concentration (GI50) in data set [22] was 1 µM; in [23] it was 2.3 µM; in data set [24] it was 3.2 µM; in data set [25] it was 3.2 µM; in data set [26], 3.2 µM.
On to `O=C1/C(=C/c2ccccc2Br)CNC/C1=C\c1ccccc1Br`, for which the pIC50 in data set [1], in data set [2], in [3], in data set [4], in data set [5] and in data set [6] was 6.41 each time.
As to `COc1cc(/C=C/C(=O)/C=C/c2cccc(O)c2)cc(OC)c1OC`, the pIC50 in data set [7], in data set [8], in data set [9], in data set [10], in [11] and in [12] was 6.00 throughout. The pIC50 in data set [13], in data set [14], in data set [15], in [16], in data set [17] and in data set [18] was 6.00 throughout. The pIC50 in data set [19], in data set [20] and in data set [21] was 6.00 throughout.
`COc1cc(/C=C2\CN(C)C/C(=C\c3cc(OC)c(OC)c(OC)c3)C2=O)cc(OC)c1OC`: the negative-log IC50 (pIC50) in data set [1], in data set [2], in [3], in data set [4], in data set [5] and in data set [6] was 6.41 in each case.
Take `O=C1/C(=C/c2ccccc2Cl)CNC/C1=C\c1ccccc1Cl`: the pIC50 in data set [1], in data set [2], in data set [3], in data set [4], in data set [5] and in [6] was 6.41 throughout.

What is called pIC50 is the IC50 on a negative log10 scale, so that one unit is a factor of ten. As a reminder, the GI50 is the concentration giving 50% growth inhibition.
